Like-named read-outs stand apart in the source and are kept apart here. {Fluorescein} = fluorescein label
Columns and labels:
[1] = Vesicle size distribution of hairpin TFD complexes (Malvern Nanosizer); assay type: physicochemical; details: TFD complexes containing hairpin TFD SA SIG and the delivery compound
Procedure: To prepare delivery complexes, 10 mg of compound was suspend in 12.5 ml of 5 mM Hepes pH7.5 (final concentration 0.8 mg/ml) and dissolved by sonication (30×30 s on, 30 s off, on ice at 10μ). Absorbance of the resulting solution was measured at 327 nm to establish an accurate concentration. 12.5 μl delivery compound was mixed with 40 μl 10 μM TFD and 447.5 μl 5 mM Hepes (pH7.5) and sonicated in an ice bath using an MSE 150 Soniprep attached with a microprobe. Thirty cycles of sonication were performed with 30 s on (with 50% power, approximately 10μ) and 30 s off.
The size distributions of the formed vesicles were measured using a Malvern Nanosizer using standard methodology and are set out in Table 3 below: […]

EMRSA-15 = experiment: Growth assay, TFDs delivered by antibacterial peptides; assay type: cell-based, S. aureus; details: for bacterial growth of EMRSA-15, agent alone: TFD alone or Gramicidin alone; for bacterial growth of EMRSA-15, agent alone / bacterial growth of EMRSA-15, TFD with Gramicidin: LB media; for bacterial growth of EMRSA-15, TFD with Gramicidin: 1 μg DB-TFD with 150 ng/ul of Gramicidin; for growth of EMRSA-15, TFD mixed with Buforin II: 96 well plate in vitro assay
Procedure: The following antibacterial peptides were assayed for their ability to deliver TFDs to bacterial cells: Gramicidin, Polymyxin nonapeptide (both purchased from Sigma Aldrich) and Buforin II (Park et al. (2000) Proc. Natl. Acad. Sci. USA 97: 8245-8250). Typically 1 μg of the Sig DB-TFDs and SigScr DB-TFD as described in Example 1 were mixed with between 0.2 and 5 μg of Gramicidin in a total volume of 5 μl 50 mM NaCl. Of this, 1 μl was added to 200 μl of LB broth inoculated with a 1/100 dilution of a glycerol stock of EMRSA-15 at an original density of 0.3 OD (Absorbance at 600 nm) and aliquoted into a well of a 96 well plate. Experiments were performed in triplicate. The plates were incubated at 37° C. with shaking and absorbance readings (at […]) were taken using a plate reader.

MRSA strain, EMRSA-15 = experiment: Fluorescence microscopy of uptake of labelled oligonucleotide; assay type: cell-based, S. aureus; details: delivered in Buforin II-derivatised complexes formed with Compound 7; overnight growth
Procedure: Derivatised TFD complexes were formed as described, with the exception that the TFD was substituted with a fluorescently labelled oligonucleotide, Tef, that contained a fluorescein dye at the 5′ end. The sequence of the oligonucleotide was:
The derivatised complexes are added to 200 μl of LB broth inoculated with the MRSA strain, EMRSA-15, and grown overnight with shaking at 37° C. The following morning, cells were harvested by centrifugation and washed four times in an equal volume of PBS. A drop of the bacterial suspension was placed on a microscope slide and air dried. Cells were then heat-fixed by passing the slide through a Bunsen flame. The slide was then flooded with a solution of Loeffler's methylene blue (5 mg/ml methylene blue in 69:30:1 (v/v) solution of water:methanol: 1% (w/v) KOH) and allowed to stand for 1 min, after which the excess solution was washed off with water and the cells visualised using a Cairn CCD Fluorescence Microscope.

[2] = system: Staphylococcus aureus EMRSA 16; experiment: Tissue burden study, mouse sepsis model; assay type: in vivo; details: Dwass-Steel-Chritchlow-Fligner, all pairwise comparisons
Procedure: Animals were treated in groups of since mice per treatment group, therefore forty eight animals were used in total for the study. Two 10 ml cultures of Staphylococcus aureus EMRSA 16 were prepared and placed on orbital shaker (220 rpm) overnight at 37° C. The following day, the Staphylococcus aureus EMRSA 16 cultures were removed from shaker, pelleted and washed twice before being resuspended in saline to an OD of 0.132 (1.5×10^8 cfu/ml). This stock solution of Staphylococcus aureus EMRSA 16 was then further diluted 1:1.5 in saline (1×10^8 cfu/ml) i.e. 2.0×10^7 bacteria per mouse.
All forty eight mice were then infected with 0.2 ml of the 1.0×10^8/ml suspension by intravenous injection into mouse tail vein. The number of Staphylococcus aureus EMRSA 16 bacteria per ml in the remainder of the suspensions after inoculation was also counted to confirm infection load.
Mice were treated 1, 9 and 17 hours post infection with either compound or vehicle, though vancomycin was only administered after 1 h.
After 25 hours post infection, all animals were weighed and then euthanised. […] Organ homogenates were quantitatively cultured onto CLED agar and incubated at 37° C. for up to 3 days and colonies counted. The data from the culture burdens was analysed by the Kruskal-Wallis test using Stats Direct. […]

[3] = Weissig et al. 2001 S. T. P. Pharma Sci. 11: 91-96, Table I; cited from earlier work
TFD = experiment: SYBR Green-DNA binding assay: binding of bolasomes to TFDs; details: at the concentrations used for sC7 bolasomes; 2 μg TFD/ml
Procedure: To determine the proportion of TFDs being bound by the vesicles, a SYBR-green binding assay was used. TFD complexes were formed as described above in Hepes buffer with the adaptation that the buffer contained 5 μl of a 1 in 10 dilution of SYBR Green I dye (Invitrogen, 10,000× stock prepared in DMSO). Fluorescence was measured (λEX 497 nm, λEM 520 nm) to determine how much bolasome needed to be added to quench the binding of SYBR Green to the TFDs.
SYBR-Green I dye binds specifically to double-stranded DNA and, as it does, gives a strong fluorescent signal. By measuring the change in signal in the presence of different concentrations and types of bolasome, it was possible to calculate the minimum amount of bolasome needed to quench the SYBR-Green binding, due to the dye being excluded by the bolasomes. This was achieved by extrapolation from the linear portion of a titration curve that plotted amount of bolasome added to fluorescent signal. […] At these concentrations no quenching was seen by the monomeric C7.

[4] = Weissig et al. (2006) J. Liposome Res. 16: 249-264, cited from earlier work

Nc1c2c([n+](CCCCCCCCCCCC[n+]3c4c(c(N)c5ccccc53)CCCC4)c3ccccc13)CCCC2.[Cl-].[Cl-] [Compound 7_12, 10,10′-(dodecane-1,12-diyl)bis(9-amino-1,2,3,4-tetrahydroacridinium)dichloride]
Vesicle size distribution (nm) [1]: 117 +/− 32 nm

Cc1cc(N)c2ccccc2[n+]1CCCCCCCCCC[n+]1c(C)cc(N)c2ccccc21 [Dequalinium, reference compound]
Vesicle size distribution (nm) [1]: 75-820 nm

Gramicidin [reference compound]
bacterial growth of EMRSA-15, agent alone (EMRSA-15): grew as well as the untreated control

Tef: fluorescein 5′-labelled oligonucleotide, SEQ ID NO: 52, substitute for the TFD (AGGCGGCCGCGAATTCACTAGTGA; DNA, 5' {Fluorescein}, backbone not given here; listed as Staphylococcus aureus)
uptake of labelled oligonucleotide into bacteria (fluorescence view) (MRSA strain, EMRSA-15): had been internalised

Sig TFD: transcription factor decoy with S. aureus Sig binding site (SEQ ID NO:9), given alone at 1 nM (TTATTATATACCCATCGAAATAATTTCTAATCTTC; DNA, backbone not given here; further chemistry not fully specified; listed as Staphylococcus aureus)
Kruskal-Wallis pairwise comparison of kidney burden vs Vancomycin [2]: <0.0001 | Kruskal-Wallis pairwise comparison of kidney burden vs Vehicle [2]: 0.9203

Nc1c2c([n+](CCCCCCCCCC[n+]3c4c(c(N)c5ccccc53)CCCC4)c3ccccc13)CCCC2.[Cl-].[Cl-] [Compound 7, 10,10′-(decane-1,10-diyl)bis(9-amino-1,2,3,4-tetrahydroacridinium)dichloride]
published size distribution of the vesicles [3]: 169 nm | Vesicle size distribution (nm) [1]: 139 +/− 35 nm | quenching of SYBR-Green binding (TFD): no quenching | in vitro toxicity compared to dequalinium [4]: less in vitro toxicity than dequalinium | in vitro toxicity compared to dequalinium ([4]; listed as Compound 7 analogue): lower toxicity in vitro compared to dequalinium

B1: scrambled version of the DB-TFD: dumbbell TFD with scrambled Sig binding site, SEQ ID NO: 43 and 44 (nucleic acid)
chain 1: CTTGGTTTTTCCAAGTAGAAAGAAGATTTAGGGCGATTTTATAATATAT
chain 2: CCGTCTTTTTGACGGATATATTATAAAATCGCCCTAAATCTTCTTTCTA
modifications: DNA, backbone not given here; dumbbell decoy with hairpin loops
bacterial growth of EMRSA-15, TFD with Gramicidin (EMRSA-15): grew as well as the untreated control | growth of EMRSA-15, TFD mixed with Buforin II (EMRSA-15): no discernable effect on growth

B2: Sig DB-TFD: dumbbell TFD with recognition site for S. aureus alternative sigma protein, SEQ ID NO: 30 and 31 (nucleic acid)
chain 1: CTTGGTTTTTCCAAGGAAGATTAGAAATTATTTCGATGGGTATATAATA
chain 2: CCGTCTTTTTGACGGTATTATATACCCATCGAAATAATTTCTAATCTTC
modifications: DNA, backbone not given here; phosphorylated oligos forming dumbbell with hairpin loops, further chemistry not fully specified
bacterial growth of EMRSA-15, TFD with Gramicidin (EMRSA-15): no bacterial growth | growth of EMRSA-15, TFD mixed with Buforin II (EMRSA-15): prevented growth | bacterial growth of EMRSA-15, agent alone (EMRSA-15): grew as well as the untreated control

— US9024005B2, “Nucleic acid complexes” (priority 2010, dated 2015)
